{"source": "patent US20220323406A1", "about": "“METHODS AND COMPOSITIONS FOR DIFFERENTIATING STEM CELLS” (Massachusetts Institute of Technology, priority 2019, published 2022);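 on Dose.FC.CTG: compounds given at plating and again on day 3 over a 6-day differentiation from ENR+CV stem-cell-enriched precursors, ATP measured on day 6, plate median as control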", "key": {"[1]": {"system": "ENR+CD organoids (ISC to Paneth cell differentiation)", "test": "Primary screen: basal (non-stimulated) lysozyme secretion LYZ.NS, 2.5-D 384-well ENR+CD organoid differentiation", "format": "cell-based, mouse", "conditions": "primary screen; for Z.LYZ.NS: standard z score", "from_the_text": "(§1) High-throughput screening."}, "[2]": {"system": "ENR+CD organoids (ISC to Paneth cell differentiation)", "test": "Primary screen: CCh-stimulated lysozyme secretion LYZ.S, 2.5-D 384-well ENR+CD organoid differentiation", "format": "cell-based, mouse", "conditions": "primary screen", "from_the_text": "as §1"}, "ENR+CD organoids": {"system": "ENR+CD organoids", "test": "Primary screen: ATP (CellTiter-Glo 3D, CTG) cell number/viability, 2.5-D 384-well ENR+CD organoids", "conditions": "primary screen"}}, "data": [{"smiles": "C[C@H](CS)C(=O)N1CCC[C@H]1C(=O)O", "note": "[Captopril]", "values": [{"measurement": "Dose.FC.LYZ.NS", "setting": "[1]; dose 0.08 uM", "result": 0.059, "unit": "log2 fold change"}, {"measurement": "Dose.FC.LYZ.NS", "setting": "[1]; dose 0.40 uM", "result": 0.035, "unit": "log2 fold change"}, {"measurement": "Dose.FC.LYZ.NS", "setting": "[1]; dose 2.00 uM", "result": 0.033, "unit": "log2 fold change"}, {"measurement": "Dose.FC.LYZ.NS", "setting": "[1]; dose 10.00 uM", "result": 0.153, "unit": "log2 fold change"}, {"measurement": "Z.LYZ.NS", "setting": "[1]; dose 0.08 uM", "result": 0.511}, {"measurement": "Z.LYZ.NS", "setting": "[1]; dose 0.40 uM", "result": 0.307}, {"measurement": "Z.LYZ.NS", "setting": "[1]; dose 2.00 uM", "result": 0.285}, {"measurement": "Z.LYZ.NS", "setting": "[1]; dose 10.00 uM", "result": 1.330}, {"measurement": "Dose.FC.LYZ.S", "setting": "[2]; dose 0.08 uM", "result": 0.049, "unit": "log2 fold change"}, {"measurement": "Dose.FC.LYZ.S", "setting": "[2]; dose 0.40 uM", "result": 0.109, "unit": "log2 fold change"}, {"measurement": "Dose.FC.LYZ.S", "setting": "[2]; dose 2.00 uM", "result": 0.051, "unit": "log2 fold change"}, {"measurement": "Dose.FC.LYZ.S", "setting": "[2]; dose 10.00 uM", "result": 0.077, "unit": "log2 fold change"}, {"measurement": "Dose.FC.CTG", "setting": "ENR+CD organoids; dose 0.08 uM", "result": "−0.056", "unit": "log2 fold change"}, {"measurement": "Dose.FC.CTG", "setting": "ENR+CD organoids; dose 0.40 uM", "result": 0.108, "unit": "log2 fold change"}, {"measurement": "Dose.FC.CTG", "setting": "ENR+CD organoids; dose 2.00 uM", "result": 0.123, "unit": "log2 fold change"}, {"measurement": "Dose.FC.CTG", "setting": "ENR+CD organoids; dose 10.00 uM", "result": 0.107, "unit": "log2 fold change"}]}, {"smiles": "COc1ccccc1OCCNCC(O)COc1cccc2[nH]c3ccccc3c12", "note": "(stereo not shown) [Carvedilol]", "values": [{"measurement": "Dose.FC.LYZ.NS", "setting": "[1]; dose 0.08 uM", "result": 0.002, "unit": "log2 fold change"}, {"measurement": "Dose.FC.LYZ.NS", "setting": "[1]; dose 0.40 uM", "result": "−0.020", "unit": "log2 fold change"}, {"measurement": "Dose.FC.LYZ.NS", "setting": "[1]; dose 2.00 uM", "result": 0.099, "unit": "log2 fold change"}, {"measurement": "Dose.FC.LYZ.NS", "setting": "[1]; dose 10.00 uM", "result": "−0.053", "unit": "log2 fold change"}, {"measurement": "Z.LYZ.NS", "setting": "[1]; dose 0.08 uM", "result": 0.021}, {"measurement": "Z.LYZ.NS", "setting": "[1]; dose 0.40 uM", "result": "−0.175"}, {"measurement": "Z.LYZ.NS", "setting": "[1]; dose 2.00 uM", "result": 0.866}, {"measurement": "Z.LYZ.NS", "setting": "[1]; dose 10.00 uM", "result": "−0.464"}, {"measurement": "Dose.FC.LYZ.S", "setting": "[2]; dose 0.08 uM", "result": "−0.009", "unit": "log2 fold change"}, {"measurement": "Dose.FC.LYZ.S", "setting": "[2]; dose 0.40 uM", "result": "−0.079", "unit": "log2 fold change"}, {"measurement": "Dose.FC.LYZ.S", "setting": "[2]; dose 2.00 uM", "result": "−0.087", "unit": "log2 fold change"}, {"measurement": "Dose.FC.LYZ.S", "setting": "[2]; dose 10.00 uM", "result": 0.019, "unit": "log2 fold change"}, {"measurement": "Dose.FC.CTG", "setting": "ENR+CD organoids; dose 0.08 uM", "result": 0.057, "unit": "log2 fold change"}, {"measurement": "Dose.FC.CTG", "setting": "ENR+CD organoids; dose 0.40 uM", "result": "−0.014", "unit": "log2 fold change"}, {"measurement": "Dose.FC.CTG", "setting": "ENR+CD organoids; dose 2.00 uM", "result": "−0.151", "unit": "log2 fold change"}, {"measurement": "Dose.FC.CTG", "setting": "ENR+CD organoids; dose 10.00 uM", "result": "−0.242", "unit": "log2 fold change"}]}, {"smiles": "Cc1ccc(-c2cc(C(F)(F)F)nn2-c2ccc(S(N)(=O)=O)cc2)cc1", "note": "[Celecoxib]", "values": [{"measurement": "Dose.FC.LYZ.NS", "setting": "[1]; dose 0.08 uM", "result": "−0.041", "unit": "log2 fold change"}, {"measurement": "Dose.FC.LYZ.NS", "setting": "[1]; dose 0.40 uM", "result": "−0.053", "unit": "log2 fold change"}, {"measurement": "Dose.FC.LYZ.NS", "setting": "[1]; dose 2.00 uM", "result": "−0.084", "unit": "log2 fold change"}, {"measurement": "Dose.FC.LYZ.NS", "setting": "[1]; dose 10.00 uM", "result": "−0.099", "unit": "log2 fold change"}, {"measurement": "Z.LYZ.NS", "setting": "[1]; dose 0.08 uM", "result": "−0.359"}, {"measurement": "Z.LYZ.NS", "setting": "[1]; dose 0.40 uM", "result": "−0.463"}, {"measurement": "Z.LYZ.NS", "setting": "[1]; dose 2.00 uM", "result": "−0.734"}, {"measurement": "Z.LYZ.NS", "setting": "[1]; dose 10.00 uM", "result": "−0.865"}, {"measurement": "Dose.FC.LYZ.S", "setting": "[2]; dose 0.08 uM", "result": "−0.067", "unit": "log2 fold change"}, {"measurement": "Dose.FC.LYZ.S", "setting": "[2]; dose 0.40 uM", "result": "−0.068", "unit": "log2 fold change"}, {"measurement": "Dose.FC.LYZ.S", "setting": "[2]; dose 2.00 uM", "result": "−0.097", "unit": "log2 fold change"}, {"measurement": "Dose.FC.LYZ.S", "setting": "[2]; dose 10.00 uM", "result": "−0.133", "unit": "log2 fold change"}, {"measurement": "Dose.FC.CTG", "setting": "ENR+CD organoids; dose 0.08 uM", "result": "−0.034", "unit": "log2 fold change"}, {"measurement": "Dose.FC.CTG", "setting": "ENR+CD organoids; dose 0.40 uM", "result": "−0.299", "unit": "log2 fold change"}, {"measurement": "Dose.FC.CTG", "setting": "ENR+CD organoids; dose 2.00 uM", "result": "−0.118", "unit": "log2 fold change"}, {"measurement": "Dose.FC.CTG", "setting": "ENR+CD organoids; dose 10.00 uM", "result": "−0.128", "unit": "log2 fold change"}]}, {"smiles": "COc1ccc([C@]2(C#N)CC[C@@H](C(=O)O)CC2)cc1OC1CCCC1", "note": "[Cilomilast]", "values": [{"measurement": "Dose.FC.LYZ.NS", "setting": "[1]; dose 0.08 uM", "result": 0.114, "unit": "log2 fold change"}, {"measurement": "Dose.FC.LYZ.NS", "setting": "[1]; dose 0.40 uM", "result": "−0.037", "unit": "log2 fold change"}, {"measurement": "Dose.FC.LYZ.NS", "setting": "[1]; dose 2.00 uM", "result": "−0.010", "unit": "log2 fold change"}, {"measurement": "Dose.FC.LYZ.NS", "setting": "[1]; dose 10.00 uM", "result": "−0.043", "unit": "log2 fold change"}, {"measurement": "Z.LYZ.NS", "setting": "[1]; dose 0.08 uM", "result": 0.995}, {"measurement": "Z.LYZ.NS", "setting": "[1]; dose 0.40 uM", "result": "−0.321"}, {"measurement": "Z.LYZ.NS", "setting": "[1]; dose 2.00 uM", "result": "−0.083"}, {"measurement": "Z.LYZ.NS", "setting": "[1]; dose 10.00 uM", "result": "−0.376"}, {"measurement": "Dose.FC.LYZ.S", "setting": "[2]; dose 0.08 uM", "result": 0.115, "unit": "log2 fold change"}, {"measurement": "Dose.FC.LYZ.S", "setting": "[2]; dose 0.40 uM", "result": "−0.109", "unit": "log2 fold change"}, {"measurement": "Dose.FC.LYZ.S", "setting": "[2]; dose 2.00 uM", "result": "−0.083", "unit": "log2 fold change"}, {"measurement": "Dose.FC.LYZ.S", "setting": "[2]; dose 10.00 uM", "result": "−0.045", "unit": "log2 fold change"}, {"measurement": "Dose.FC.CTG", "setting": "ENR+CD organoids; dose 0.08 uM", "result": "−0.334", "unit": "log2 fold change"}, {"measurement": "Dose.FC.CTG", "setting": "ENR+CD organoids; dose 0.40 uM", "result": "−0.338", "unit": "log2 fold change"}, {"measurement": "Dose.FC.CTG", "setting": "ENR+CD organoids; dose 2.00 uM", "result": "−0.235", "unit": "log2 fold change"}, {"measurement": "Dose.FC.CTG", "setting": "ENR+CD organoids; dose 10.00 uM", "result": "−0.192", "unit": "log2 fold change"}]}]}
